Test results reported in patent publication US20030176442A1, “Treatment of diabetic ulcers” (priority 2000, published 2003).

Tested on: diabetic foot ulcer
Assay: anecdotal report: insulin-dependent diabetic patient with diabetic foot ulcer treated with sildenafil
Assay type: in vivo, human
Details: one patient
Source text: The efficacy of the cGMP PDE5 inhibitors in treating neuropathy in human patients is illustrated by the following anecdotal report. The patient was an insulin-dependent diabetic who had been suffering from erectile dysfunction and who subsequently developed a diabetic foot ulcer. During treatment of their erectile dysfunction with sildenafil it was noted that their foot ulcer, which they had had for approximately two years, was healing. The patient had been through various courses of treatment with minimal results. They had seen vascular surgeons, podiatrists and had visited wound care clinics. Ultimately, they were hopitalised for approximately one month on IV antibiotics etc, and the threat was very real that the patient was going to require a below-the-knee amputation. At times the ulcer would appear to be healing only to re-occur, returning to its pre-treatment size and depth. […] The patient was instructed to continue taking 50 mg of Sildenafil once a day.

CCCc1nn(C)c2c(=O)[nH]c(-c3cc(S(=O)(=O)N4CCN(C)CC4)ccc3OCC)nc12 [Sildenafil, 5-[2-ethoxy-5-(4-methylpiperazin-1-ylsulphonyl)-phenyl]-1,6-dihydro-1-methyl-3-propylpyrazolo [4,3-d]pyrimidine-7-one]
outcome of the diabetic foot ulcer (ulcer present approximately two years, 50 mg of Sildenafil once a day): complete resolution of the diabetic foot ulcer within one month
ulcer size after start of treatment (Sildenafil treatment begun for erectile dysfunction): decreasing in size
re-occurrence of ulcer on continued treatment (same treatment (50 mg once a day) continued for the past two years): without re-occurrence
